Source: PMC11237694, “Novel pentafluorosulfanyl-containing triclocarban analogs selectively kill Gram-positive bacteria” (Microbiology Spectrum, 2024)
“Also recorded” adds a separate entry of the source. Read-outs that look alike come from different tables or passages of the source.

Experiments:
MRSA strain MW2 = assay: Intravenous MRSA infection model in mice, CFU enumeration in organs; format: in vivo; conditions: single i.p. injection 100 µl of 5 mM, 1 hour before or after i.v. infection with 5 × 10^7 CFU MW2; 24 hours
Experimental: Mice were infected systemically with the community-associated MRSA strain MW2 at an infectious dose of 5 × 10^7 colony-forming units (CFUs) as described ([26]). Treatment groups were injected intraperitoneally with the compound of interest 1 hour before or after infection, with a saline-injected control group. After 24 hours of infection, mice were sacrificed, and blood, peritoneal fluid, spleen, liver, kidney (left), heart, and lungs were harvested for CFU enumeration to determine the bacterial burden in these organs. […] Although disappointing, the lack of promising results in the single-dose treatments may have a variety of reasons, including rapid metabolism and excretion of the compounds by the liver, or the acknowledged intracellular aspect of S. aureus in its infectious cycle ([27]). […] Additionally, investigating the possibility of topical application for these components presents another viable option.
Animal experiments were performed with 6- to 10-week/old adult male mice. Mice were kept in a pathogen-free facility under standardized conditions: temperature of 21–22°C, illumination of 12-hour light–12-hour dark, and access to tap water and food. Experimental animal protocols were approved by the University of Calgary Animal Care Committee and followed the Canadian Council for Animal Care Guidelines.
MW2 Staphylococcus aureus was grown on brain heart infusion (BHI) agar plates (BD biosciences). A single colony was grown overnight in BHI medium (BD biosciences) at 37°C while shaking. Subcultures of […] of the overnight (ON) culture were grown in 3 mL of the same culture medium for 2 hours at 37°C while shaking to reach the exponential growth phase. Bacteria were brought to a concentration of OD660 1.0 in saline. […]
For assessing bacterial by CFU enumeration, the mice were anesthetized with isoflurane (Fresenius Kabi) and washed with 70% ethanol to collect blood and sacrificed to further collect liver, spleen, kidney (left), heart, and lungs. […] Cultures were counted, and CFUs were calculated taking the weight of the organ into account.

HeLa cells = assay: Eukaryotic cell toxicity, microscopy (MCC); format: cell-based, Human; conditions: minimum concentration causing microscopically detectable alteration of cell morphology; 4 days
Experimental: (§1) Five eukaryotic cell lines were used to determine the cytotoxicity of the compounds: human embryonic lung (HEL) fibroblast cells, human cervixcarinoma-derived HeLa cells, human T-cell leukemia-derived MT4 cells, MDCK cells, and African Green monkey kidney-derived VERO cells. Semi-confluent cell cultures in 96-well plates were exposed to serial dilutions of the compounds or to medium (= no compound control), then incubated at 37°C. Four days later, the cells were inspected by microscopy to determine the MCC, that is, compound concentration that causes a microscopically detectable alteration of normal cell morphology. Next, the MTS cell viability reagent (CellTiter 96 AQueous MTS Reagent from Promega) was added. After 4 hours of incubation at 37°C, OD at 490 nm was recorded in a microplate reader.

HEL cells = assay: Eukaryotic cell toxicity, microscopy (MCC); format: cell-based, Human; conditions: minimum concentration causing microscopically detectable alteration of cell morphology; 4 days
Experimental: as §1

MDCK cells = assay: Eukaryotic cell toxicity, MTS assay (CC50); format: cell-based, canine; conditions: for cytotoxicity level lower than that of EPB-34: MDCK cells; for CC50: MTS assay, 4 days, mean of 2 or 3 determinations, read-out: MDCK (CC50) in vitro cytotoxicity
Experimental: as §1

[1] = Eukaryotic cell toxicity, MTS assay (CC50); format: cell-based, canine; conditions: dog, MDCK cells, MTS assay, 4 days; mean of 2 or 3 determinations; read-out: MDCK (CC50) in vitro cytotoxicity
Experimental: as §1

MRSA = assay: Membrane permeability, propidium iodide staining; format: cell-based, methicillin-resistant S. aureus; conditions: Gram-positive MRSA; MIC concentration, 1 hour
Experimental: (§2) For assessing membrane permeability, PI (Invitrogen, Eugene, Oregon, USA) served as the fluorescent reporter dye. Increased PI fluorescence readings are indicative of heightened membrane disruption and permeability, as PI can penetrate cells, bind to DNA, and remain within the cells ([29], [30]). Bacteria were cultured in 3 mL of Mueller-Hinton broth (MHB) and incubated at 37°C for approximately 3 hours in a shaker incubator (150 rpm) until reaching an OD600 (optical density) of 0.08. […] All treated and control groups were incubated at 37°C for 1 hour in a shaker incubator (150 rpm). Ciprofloxacin and gentamycin were employed as internal controls, as they are known not to target the bacterial cell membrane in the initial steps. After incubation, the samples were centrifuged, washed with PBS (10,000 × g for 2 minutes), and bacteria were stained with 0.08 mM PI for 5 minutes at 21°C in the dark. Subsequently, 10 µL of samples were transferred onto slides and examined under a fluorescence microscope (Zeiss Axio Imager Z1) using the same exposure time (640 ms red and 1 s green). Densitometry analysis was conducted using Fiji software (ImageJ).

P. aeruginosa = assay: Membrane permeability, propidium iodide staining; format: cell-based, Pseudomonas aeruginosa; conditions: Gram-negative P. aeruginosa; MIC concentration, 1 hour
Experimental: as §2

SMILES	bacterial burden (CFU) in blood, spleen, liver, kidney, heart, lungs (MRSA strain MW2)	HeLa (MCC) in vitro cytotoxicity (HeLa cells)	HEL (MCC) in vitro cytotoxicity (HEL cells)	cytotoxicity level lower than that of EPB-34 (MDCK cells)	CC50 (MDCK cells)	CC50 at 4 days [1]	cell membrane disruption (PI staining) (MRSA)	effect on cell membrane (PI staining) (P. aeruginosa)	CC50 (MDCK cells; listed as EBP-61)
O=C(Nc1ccc(S(F)(F)(F)(F)F)cc1)Nc1ccc(Cl)c(Cl)c1 [EBP-59]	failed to reduce bacterial counts; also recorded: not significant	4 µM	>4 µM	2 logs	> 100 µM	≥ 100 µM	effective at cell membrane disruption	no effect	
O=C(Nc1ccc(Cl)cc1)Nc1cccc(S(F)(F)(F)(F)F)c1 [EBP-62, 1-(4-chlorophenyl)-3-(3-(pentafluoro-λ^6-sulfanyl)phenyl)urea]	failed to reduce bacterial counts; also recorded: not significant	>4 µM	20 µM			100 µM			
O=C(Nc1ccc(Cl)cc1)Nc1ccc(S(F)(F)(F)(F)F)cc1 [EPB-61, 1-(4-Chlorophenyl)-3-(4-(pentafluoro-λ^6-sulfanyl)phenyl)urea]	failed to reduce bacterial counts; also recorded: not significant	4 µM	>4 µM	2 logs		≥ 100 µM	effective at cell membrane disruption	no effect	> 100 µM
